Data published in PubChem BioAssay (NCI).
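GI50: concentration for 50% inhibition of growth. At the TGI there is no net growth.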

Assays:
Test in all cases: growth of human tumour cells (NCI), 384-well format
MOLT-4 leukemia = tested on: MOLT-4 leukemia
SF-295 CNS = tested on: SF-295 CNS
NCI-H322M lung = tested on: NCI-H322M lung
KM12 colon = tested on: KM12 colon
UO-31 renal = tested on: UO-31 renal
SNB-75 CNS = tested on: SNB-75 CNS
MDA-MB-231 breast = tested on: MDA-MB-231 breast
T-47D breast = tested on: T-47D breast
U251 glioblastoma = tested on: U251 glioblastoma
NCI-H522 lung = tested on: NCI-H522 lung
EKVX NSCLC = tested on: EKVX NSCLC
TK-10 renal = tested on: TK-10 renal
SF-539 CNS = tested on: SF-539 CNS

`C[C@H](NC(=O)CCC(F)(F)F)C(=O)N[C@@H]1C(=O)N(CCO)c2ncccc2-c2ccccc21` showed a GI50 (MOLT-4 leukemia) of 29.8 µM, a TGI (MOLT-4 leukemia) greater than 100 µM and a GI50 (SF-295 CNS) greater than 100 µM. It also gave a TGI (SF-295 CNS) greater than 100 µM, a GI50 (NCI-H322M lung) greater than 100 µM and a TGI (NCI-H322M lung) greater than 100 µM. The GI50 (KM12 colon) was greater than 100 µM, the TGI (KM12 colon) was greater than 100 µM and the GI50 (UO-31 renal) was greater than 100 µM. For the same compound, the TGI (UO-31 renal) was greater than 100 µM, the GI50 (SNB-75 CNS) was greater than 100 µM and the TGI (SNB-75 CNS) was greater than 100 µM. The GI50 (MDA-MB-231 breast) was greater than 100 µM, the TGI (MDA-MB-231 breast) was greater than 100 µM and the GI50 (T-47D breast) was greater than 100 µM. The TGI (T-47D breast) was greater than 100 µM, the GI50 (U251 glioblastoma) was greater than 100 µM and the TGI (U251 glioblastoma) was greater than 100 µM. The GI50 (NCI-H522 lung) was greater than 100 µM, the TGI (NCI-H522 lung) was greater than 100 µM and the GI50 (EKVX NSCLC) was greater than 100 µM. It also gave a TGI (EKVX NSCLC) greater than 100 µM, a GI50 (TK-10 renal) greater than 100 µM and a TGI (TK-10 renal) greater than 100 µM. It also gave a GI50 (SF-539 CNS) greater than 100 µM and a TGI (SF-539 CNS) greater than 100 µM.
